The text below walks through data of ChEMBL document CHEMBL1150146, “New terpenoids from the brown alga Stypopodium zonale” (J Nat Prod, 2002).

Format in all cases: functional, cell-based
In assay [1] the test system is HT-29. Kind of assay: Cytotoxicity against human HT-29 cells.
The nature of assay [2]: Cytotoxicity against human H116 cells.
In assay [3] the test system is A549. The assay is described as follows: Cytotoxicity against human A549 cells.

Values after ≈ are worked out from the molar mass of the structure shown.

In the case of `COC(=O)CC[C@@H]1C(=C(C)C)CC[C@H]2[C@@]1(C)CC[C@H](C)[C@]2(C)Cc1cc(O)cc(C)c1O`, the values for the IC50 in assay [1], in assay [2] and in assay [3] were under 2.5 µg/mL, 2.5 µg/mL (≈ 5.65 µM) and 2.5 µg/mL (≈ 5.65 µM), respectively.
